# Laboratory results as given in patent US7998978B2 (Pfizer Inc., priority 2006, dated 2011).
# Biological target: T1, JNK1α1 (Homo sapiens, UniProt P45983)
# T1 construct: catalytic domain containing amino acids 1-364 and N-terminal hexahistidine tag; hexahistidine (His6) (N); made in house; host or cells: E. coli BL21 (DE3)
# Assay: Coupled spectrophotometric (PK/LDH) JNK1α1 assay: % inhibition and Ki determination
# Format: biochemical
# Conditions: @1 uM; read-out: % Inhibition JNK-1
# Outline: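 Initial rates were taken from the absorbance decrease at 340 nm at 30° C. Ki was fitted with a tight-binding model over 11 concentrations (top 100 μM); single-point inhibition was tested at 1 or 10 μM.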
# T1 sequence (P45983 1-364): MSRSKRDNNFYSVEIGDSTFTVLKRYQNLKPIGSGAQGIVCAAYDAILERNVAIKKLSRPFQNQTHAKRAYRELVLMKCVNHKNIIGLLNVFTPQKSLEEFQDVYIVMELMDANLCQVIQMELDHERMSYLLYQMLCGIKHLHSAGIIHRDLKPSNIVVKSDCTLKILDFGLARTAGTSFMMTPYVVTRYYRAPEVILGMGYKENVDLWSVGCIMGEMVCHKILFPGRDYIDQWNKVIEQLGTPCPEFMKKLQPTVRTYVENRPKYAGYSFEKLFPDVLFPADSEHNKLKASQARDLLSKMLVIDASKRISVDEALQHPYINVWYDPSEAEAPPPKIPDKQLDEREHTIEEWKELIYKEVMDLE
row,Structure (SMILES),inhibition at 1 µM [%]
1,"COc1ccc(COc2cccc3cnc(N[C@H]4CC[C@H](O)CC4)nc23)cc1OC [Example 265, trans-4-({8-[(3,4-dimethoxybenzyl)oxy]quinazolin-2-yl}amino)cyclohexanol]",47
2,"Cc1cc(CNC(=O)c2cccc3cnc(N[C@H]4CC[C@H](O)CC4)nc23)nn1C [Example 521, N-[(1,5-dimethyl-1H-pyrazol-3-yl)methyl]-2-[(trans-4-hydroxycyclohexyl)amino]quinazoline-8-carboxamide]",49
3,"Cc1nnc(CCNC(=O)c2cccc3cnc(N[C@H]4CC[C@H](O)CC4)nc23)o1 [Example 522, 2-[(trans-4-hydroxycyclohexyl)amino]-N-[2-(5-methyl-1,3,4-oxadiazol-2-yl)ethyl]quinazoline-8-carboxamide]",18
4,"Cc1noc(CNC(=O)c2cccc3cnc(N[C@H]4CC[C@H](O)CC4)nc23)n1 [Example 530, 2-[(trans-4-hydroxycyclohexyl)amino]-N-[(3-methyl-1,2,4-oxadiazol-5-yl)methyl]quinazoline-8-carboxamide]",26
5,"O=C(NCCn1cccn1)c1cccc2cnc(N[C@H]3CC[C@H](O)CC3)nc12 [Example 507, 2-[(trans-4-hydroxycyclohexyl)amino]-N-[2-(1H-pyrazol-1-yl)ethyl]quinazoline-8-carboxamide]",25
6,"CC(C)[C@@H](CO)NC(=O)c1ccc2cnc(NC3CCC3)nc2c1 [Example 424, 2-(cyclobutylamino)-N-[(1S)-1-(hydroxymethyl)-2-methylpropyl]quinazoline-7-carboxamide]",22

# Continued, values first:
row,inhibition at 1 µM [%],Structure (SMILES)
1,39,"O[C@H]1CC[C@H](Nc2ncc3ccc(OCc4nc5ccccc5[nH]4)cc3n2)CC1 [Example 288, trans-4-{[7-(1H-benzimidazol-2-ylmethoxy)quinazolin-2-yl]amino}cyclohexanol]"
2,52,"O[C@H]1CC[C@H](Nc2ncc3ccc(OC4CCN(c5cccnn5)CC4)cc3n2)CC1 [Example 293, trans-4-({7-[(1-pyridazin 3-ylpiperidin-4-yl)oxy]quinazolin-2-yl}amino)cyclohexanol]"
3,25,"CC(CN1CCOCC1)Oc1ccc2cnc(N[C@H]3CC[C@H](O)CC3)nc2c1 (stereo partly drawn) [Example 274, trans-4-{[7-(1-methyl-2-morpholin-4-ylethoxy)quinazolin-2-yl]amino}cyclohexanol]"

# Same assay, conditions: @10 uM; read-out: % Inhibition JNK-1
row,inhibition at 10 µM [%],Structure (SMILES)
1,57,"CCc1cc(CNC(=O)c2cccc3cnc(N[C@H]4CC[C@H](O)CC4)nc23)on1 [Example 484, N-[(3-ethylisoxazol-5-yl)methyl]-2-[(trans-4-hydroxycyclohexyl)amino]quinazoline-8-carboxamide]"
2,40,"CC(C)(C)C(=O)N1CCC(NC(=O)c2cccc3cnc(N[C@H]4CC[C@H](O)CC4)nc23)C1 (stereo partly drawn) [Example 504, N-[1-(2,2-dimethylpropanoyl)pyrrolidin-3-yl]-2-[(trans-4-hydroxycyclohexyl)amino]quinazoline-8-carboxamide]"
3,25,"Cc1nnc(C(C)NC(=O)c2cccc3cnc(N[C@H]4CC[C@H](O)CC4)nc23)[nH]1 (stereo partly drawn) [Example 510, 2-[(trans-4-hydroxycyclohexyl)amino]-N-[1-(5-methyl-4H-1,2,4-triazol-3-yl)ethyl]quinazoline-8-carboxamide]"
4,41,"O=C(NCC1CN(C2CCC2)C(=O)CO1)c1cccc2cnc(N[C@H]3CC[C@H](O)CC3)nc12 (stereo partly drawn) [Example 526, N-[(4-cyclobutyl-5-oxomorpholin-2-yl)methyl]-2-[(trans-4-hydroxycyclohexyl)amino]quinazoline-8-carboxamide]"
5,76,"Cc1cc(NC(=O)c2cccc3cnc(N[C@H]4CC[C@H](O)CC4)nc23)n(C(C)C)n1 [Example 312, 2-[(trans-4-hydroxycyclohexyl)amino]-N-(1-isopropyl-3-methyl-1H-pyrazol-5-yl)quinazoline-8-carboxamide]"
6,57,"C[C@@H](CO)NC(=O)c1ccc2cnc(NC3CCC3)nc2c1 [Example 437, 2-(cyclobutylamino)-N-[(1S)-2-hydroxy-1-methylethyl]quinazoline-7-carboxamide]"

# Same assay, conditions: JNK-1
row,Structure (SMILES),Ki [nM]
1,"O=C(N[C@H](CO)CC1CCCCC1)c1ccc2cnc(NC3CCCCC3)nc2c1 [Example 393, 2-(cyclohexylamino)-N-[(1S)-2-cyclohexyl-1-(hydroxymethyl)ethyl]quinazoline-7-carboxamide]",387
2,"c1cnc(N2CCC(Nc3cc4cc(-c5cn[nH]c5)ccc4cn3)CC2)nc1 [Example 216, 6-(1H-pyrazol-4-yl)-N-(1-pyrimidin-2-ylpiperidin-4-yl)isoquinolin-3-amine]",480
3,"CCC(=O)N[C@H]1CC[C@H](Nc2ncc3cccc(OC4CCOC4)c3n2)CC1 (stereo partly drawn) [Example 185, N-(trans-4-{[8-(tetrahydrofuran-3-yloxy)quinazolin-2-yl]amino}cyclohexyl)propanamide]",885
4,"CC(=O)N[C@H]1CC[C@H](Nc2ncc3cccc(C(=O)N[C@@H]4COC[C@H]4O)c3n2)CC1 (relative stereo) [Example 140, 2-{[trans-4-(acetylamino)cyclohexyl]amino}-N-[(trans)-4-hydroxytetrahydrofuran-3-yl]quinazoline-8-carboxamide]",52
5,"O=C(Cc1ccccc1)Nc1cc2cc(-c3cn[nH]c3)ccc2cn1 [Example 6, 2-phenyl-N-[6-(1H-pyrazol-4-yl)isoquinolin-3-yl]acetamide]",39
6,"CC(C)(O)CNC(=O)c1cccc2cnc(N[C@H]3CC[C@H](O)CC3)nc12 [Example 121, 2-[(trans-4-hydroxycyclohexyl)amino]-N-(2-hydroxy-2-methylpropyl)quinazoline-8-carboxamide]",169
7,"CC(C(=O)Nc1cc2cc(-c3cn[nH]c3)ccc2cn1)c1ccccc1 (stereo not shown) [Example 8, 2-phenyl-N-[6-(1H-pyrazol-4-yl)isoquinolin-3-yl]propanamide]",> 50
8,"COc1ccc(CC(=O)Nc2cc3cc(-c4cn[nH]c4)ccc3cn2)cc1 [Example 1, 2-(4-methoxyphenyl)-N-[6-(1H-pyrazol-4-yl)isoquinolin-3-yl]acetamide]",76

# Second part, the compound after the results:
row,Ki [nM],Structure (SMILES)
1,744,"N[C@H]1CC[C@H](Nc2ncc3cccc(OC4CCOCC4)c3n2)CC1 [Example 178, trans-N-[8-(tetrahydro-2H-pyran-4-yloxy)quinazolin-2-yl]cyclohexane-1,4-diamine]"
2,1170,"O=C(NC1CCCOC1)c1ccc2cnc(N[C@H]3CC[C@H](O)CC3)nc2c1 (stereo partly drawn) [Example 353, 2-[(trans-4-hydroxycyclohexyl)amino]-N-(tetrahydro-2H-pyran-3-yl)quinazoline-7-carboxamide]"
3,123,"COc1ccc2cnc(N[C@H]3CC[C@H](O)CC3)nc2c1 [Example 145, trans-4-[(7-methoxyquinazolin-2-yl)amino]cyclohexanol]"
4,257,"O=C(N[C@H]1CC[C@H](O)CC1)c1ccc2cnc(N[C@H]3CC[C@H](O)CC3)nc2c1 [Example 328, N-(trans-4-hydroxycyclohexyl)2[(trans-4-hydroxycyclohexyl)amino]quinazoline-7-carboxamide]"
5,193,"O=C(NC(CO)c1ccccc1)c1ccc2cnc(N[C@H]3CC[C@H](O)CC3)nc2c1 (stereo partly drawn) [Example 326, 2-{(trans-4-hydroxycyclohexyl)amino]-N-(2-hydroxy-1-phenylethyl)quinazoline-7-carboxamide]"
6,780,"Cc1ccc2cnc(N[C@H]3CC[C@H](O)CC3)nc2c1OCC(=O)N1CCOCC1 [Example 213, trans-4-{[7-methyl-8-(2-morpholin-4-yl-2-oxoethoxy)quinazolin-2-yl]amino} cyclohexanol]"
7,483,"CC1(CNC(=O)c2ccc3cnc(N[C@H]4CC[C@H](O)CC4)nc3c2)COC1 [Example 335, 2-[(trans-4-hydroxycyclohexyl)amino]-N-[(3-methyloxetan-3-yl)methyl]quinazoline-7-carboxamide]"
8,114,"O=C(NCc1ccc(F)cc1)c1ccc2cnc(N[C@H]3CC[C@H](O)CC3)nc2c1 [Example 88, N-(4-fluorobenzyl)-2-[(trans-4-hydroxycyclohexyl)amino]quinazoline-7-carboxamide]"
9,432,"O[C@H]1CC[C@H](Nc2ncc3ccccc3n2)CC1 [Example 151, trans-4-(quinazolin-2-ylamino)cyclohexanol]"
10,1950,C[C@H](CO)NC(=O)c1ccc2cnc(N[C@H]3CC[C@H](O)CC3)nc2c1 [Example 363]
11,250,"O=C(NCC1CCOC1)c1cccc2cnc(N[C@H]3CC[C@H](O)CC3)nc12 (stereo partly drawn) [Example 117, 2-[(trans-4-hydroxycyclohexyl)amino]-N-(tetrahydrofuran-3-ylmethyl)quinazoline-8-carboxamide]"
12,403,"O[C@H]1CC[C@H](Nc2ncc3ccc(OCCN4CCOCC4)cc3n2)CC1 [Example 154, trans-4-{[7-(2-morpholin-4-ylethoxy)quinazolin-2-yl]amino}cyclohexanol]"
13,722,"O=C(N[C@@H]1COC[C@H]1O)c1ccc2cnc(NC3CCCCC3)nc2c1 [Example 405, 2-(cyclohexylamino)-N-[(3R,4S)-4-hydroxytetrahydrofuran-3-yl]quinazoline-7-carboxamide]"
14,170,CC1(CNC(=O)c2cccc3cnc(N[C@H]4CC[C@H](O)CC4)nc23)COC1 [Example 453]
15,839,"O=C(NC1CCCCC1O)c1ccc2cnc(N[C@H]3CC[C@H](O)CC3)nc2c1 (stereo partly drawn) [Example 342, N-(2-hydroxycyclohexyl)-2-[(trans-4-hydroxycyclohexyl)amino]quinazoline-7-carboxamide]"
16,568,"O=C(N[C@@H](CO)c1ccccc1)c1ccc2cnc(N[C@H]3CC[C@H](O)CC3)nc2c1 [Example 337, 2-[(trans-4-hydroxycyclohexyl)amino]-N-[(1R)-2-hydroxy-1-phenylethyl]quinazoline-7-carboxamide]"
17,260,"CS(=O)(=O)N[C@H]1CC[C@H](Nc2ncc3ccc(OC4CCOC4)cc3n2)CC1 (stereo partly drawn) [Example 162, N-(trans-4-{[7-(tetrahydrofuran-3-yloxy)quinazolin-2-yl]amino}cyclohexyl)methanesulfonamide]"
